This is an account of results in patent US8748348B2, “3-(3,4-dihydro-2H-benzo [1,4]oxazin-6-yl)-1H-pyrimidin-2,4-dione compounds as herbicides” (BASF SE, priority 2009, dated 2014).

In one test the test system is BRAPL. The experiment in a line: greenhouse post-emergence herbicidal test. The note with it: scale from 0 to 100. In kind it is in vivo, Brachiaria plantaginea. An excerpt:
(§1) The culture containers used were plastic flowerpots containing loamy sand with approximately 3.0% of humus as the substrate. The seeds of the test plants were sown separately for each species.
(§2) For the post-emergence treatment, the test plants were first grown to a height of 3 to 15 cm, depending on the plant habit, and only then treated with the active ingredients which had been suspended or emulsified in water. For this purpose, the test plants were either sown directly and grown in the same containers, or they were first grown separately as seedlings and transplanted into the test containers a few days prior to treatment.
(§3) Depending on the species, the plants were kept at 10-25° C. or 20-35° C. The test period extended over 2 to 4 weeks. During this time, the plants were tended, and their response to the individual treatments was evaluated.
(§4) Evaluation was carried out using a scale from 0 to 100. 100 means no emergence of the plants, or complete destruction of at least the aerial moieties, and 0 means no damage, or normal course of growth. A good herbicidal activity is given at values of at least 70 and a very good herbicidal activity is given at values of at least 85.

A further test relates to COMBE. The experiment in a line: greenhouse post-emergence herbicidal test. In kind it is in vivo, Commenline benghalensis. The note with it: scale from 0 to 100.
Excerpt: as §1, §2, §3, §4

Another test deals with ERICA. Put plainly: greenhouse post-emergence herbicidal test. The note with it: scale from 0 to 100. It is filed as in vivo, Erigeron canadensis.
Excerpt: as §1, §2, §3, §4

In the next test the test system is SETVI. The experiment in a line: greenhouse post-emergence herbicidal test. In kind it is in vivo, Setaria viridis. The note with it: scale from 0 to 100.
Excerpt: as §1, §2, §3, §4

A further test has as its system BRADE. The experiment in a line: greenhouse post-emergence herbicidal test. It is filed as in vivo, Brachiaria deflexa. The following applies: scale from 0 to 100.
Excerpt: as §1, §2, §3, §4

The next test has as its system ELEIN. The experiment in a line: greenhouse post-emergence herbicidal test. In kind it is in vivo, Eleusine indica. The note with it: scale from 0 to 100.
Excerpt: as §1, §2, §3, §4

In another test the test system is DIGSA. Put plainly: greenhouse post-emergence herbicidal test. In kind it is in vivo, Digitaria sanguinales. The note with it: scale from 0 to 100.
Excerpt: as §1, §2, §3, §4

Another test concerns Chenopodium album. The experiment in a line: greenhouse post-emergence herbicidal test. In kind it is in vivo. The following applies: post-emergence method, application rate 6.25 g/ha.
Excerpt: as §1, §2, §3, §4

Another test deals with Abutilon theophrasti. Put plainly: greenhouse post-emergence herbicidal test. The following applies: post-emergence method, application rate 6.25 g/ha. It is filed as in vivo.
Excerpt: as §1, §2, §3, §4

Test [1] deals with Pharbitis purpurea. Put plainly: greenhouse post-emergence herbicidal test. The note with it: post-emergence method, application rate 6.25 g/ha. It is filed as in vivo.
Excerpt: as §1, §2, §3, §4

Test [2] relates to Amaranthus retroflexus. The experiment in a line: greenhouse post-emergence herbicidal test. It is filed as in vivo. The note with it: post-emergence method, application rate 6.25 g/ha.
Excerpt: as §1, §2, §3, §4

The subject of another test is Solanum nigrum. Put plainly: greenhouse pre-emergence herbicidal test. The following applies: pre-emergence method, application rate 6.25 g/ha. In kind it is in vivo.
Excerpt: as §1
(§5) For the pre-emergence treatment, the active ingredients, which had been suspended or emulsified in water, were applied directly after sowing by means of finely distributing nozzles. The containers were irrigated gently to promote germination and growth and subsequently covered with transparent plastic hoods until the plants had rooted. This cover caused uniform germination of the test plants, unless this has been impaired by the active ingredients.
as §3, §4

For test [3], the system named is Pharbitis purpurea. The experiment in a line: greenhouse pre-emergence herbicidal test. It is filed as in vivo. The note with it: application rate 0.025 kg/ha, eight days after treatment (greenhouse).
Excerpt: as §1, §5, §3, §4

For test [4], the system named is Amaranthus retroflexus. The experiment in a line: greenhouse pre-emergence herbicidal test. In kind it is in vivo. The following applies: pre-emergence method, application rate 6.25 g/ha.
Excerpt: as §1, §5, §3, §4

A further test deals with Erigeron Canadensis. The experiment in a line: greenhouse pre-emergence herbicidal test. It is filed as in vivo. The following applies: pre-emergence method, application rate 6.25 g/ha.
Excerpt: as §1, §5, §3, §4

The test system of a further test is Setaria faberi. The experiment in a line: greenhouse pre-emergence herbicidal test. In kind it is in vivo. The note with it: application rate 0.025 kg/ha, eight days after treatment (greenhouse).
Excerpt: as §1, §5, §3, §4

Turning to `CCNc1nc(Cl)nc(NC(C)C)n1` [B.54, atrazine, reference compound], the “herbicidal activity against BRAPL found” value in the test on BRAPL (B.54 250 g/ha a.s.) was determined as 20. The “herbicidal activity against COMBE found” value in the test on COMBE (B.54 250 g/ha a.s.) came to 70.

Turning to `CC(C)N(C)S(=O)(=O)NC(=O)c1cc(-n2c(=O)cc(C(F)(F)F)n(C)c2=O)c(F)cc1Cl` [B.76, saflufenacil], the “herbicidal activity against ERICA found” value in the test with ERICA (B.76 1.56 g/ha a.s.) came out at 45. Also, the “herbicidal activity against SETVI found” value in the test with SETVI (B.76 1.56 g/ha a.s.) came out at 0.

With `Cc1c(C(=O)c2cnn(C)c2O)ccc(S(C)(=O)=O)c1C1=NOCC1` [B.93, topramezone, reference compound], the “herbicidal activity against BRADE found” value with BRADE (B.93 3.1 g/ha a.s.) amounted to 65.

With `CC(C)N.O=C(O)CNCP(=O)(O)O` [B.98, glyphosate-isopropylammonium], the “herbicidal activity against ELEIN found” value with ELEIN (B.98 135 g/ha a.s.) is 60. In the test on ERICA (B.98 68 g/ha a.s.), the “herbicidal activity against ERICA found” value was found to be 80. Moreover, the “herbicidal activity against SETVI found” value in the test on SETVI (B.98 68 g/ha a.s.) worked out at 90.

Consider `Cn1nc(C(F)(F)F)c(CS(=O)(=O)C2=NOC(C)(C)C2)c1OC(F)F` [B.118, pyroxasulfone, reference compound], for which the “herbicidal activity against DIGSA found” value in the test on DIGSA (B.118 12.5 g/ha a.s.) stood at 35.

Turning to `C#CCN1C(=O)C(F)(F)Oc2cc(F)c(-n3c(=O)cc(C(F)(F)F)n(C)c3=O)cc21` [Ia48, 1-Methyl-6-trifluoromethyl-3-(2,2,7-trifluoro-3-oxo-4-prop-2-ynyl-3,4-dihydro-2H-benzo[1,4]oxazin-6-yl)-1H-pyrimidine-2,4-dione], in the test with ELEIN (Ia48 3.12 g/ha a.s.), the “herbicidal activity against ELEIN found” value was determined as 20. Besides, the “herbicidal activity against Chenopodium album” value in the test with Chenopodium album is listed as “very good herbicidal activity (a very good herbicidal activity is given at values of at least 85)”. Also, the “herbicidal activity against Abutilon theophrasti” value in the test with Abutilon theophrasti is given as “very good herbicidal activity (a very good herbicidal activity is given at values of at least 85)”. Also, in the test with Pharbitis purpurea [1], the “herbicidal activity against Pharbitis purpurea” value is “very good herbicidal activity (a very good herbicidal activity is given at values of at least 85)”. Also, the “herbicidal activity against Amaranthus retroflexus” value with Amaranthus retroflexus [2] and in the test with Amaranthus retroflexus [4] was “very good herbicidal activity (a very good herbicidal activity is given at values of at least 85)” in each case. In addition, the “herbicidal activity against BRAPL found” value in the test with BRAPL (Ia48 6.25 g/ha a.s.) is given as 60. Also, in the test on ERICA (Ia48 12.5 g/ha a.s.), the “herbicidal activity against ERICA found” value turned out to be 90. Also, the “herbicidal activity against BRADE found” value in the test on BRADE (Ia48 6.25 g/ha a.s.) amounted to 85. Further, in the test on COMBE (Ia48 3.12 g/ha a.s.), the “herbicidal activity against COMBE found” value turned out to be 60. Also, the “herbicidal activity against DIGSA found” value in the test on DIGSA (Ia48 6.25 g/ha a.s.) came to 65. For the same compound, in the test with SETVI (Ia48 12.5 g/ha a.s.), the “herbicidal activity against SETVI found” value is reported as 95. For the same compound, in the test with Solanum nigrum, the “herbicidal activity against Solanum nigrum” value is given as “very good herbicidal activity (a very good herbicidal activity is given at values of at least 85)”. The “damages, unwanted plants Pharbitis purpurea” value in the test on Pharbitis purpurea [3] is 90. In the test on Erigeron Canadensis, the “herbicidal activity against Erigeron Canadensis” value is recorded as “very good herbicidal activity (a very good herbicidal activity is given at values of at least 85)”. For the same compound, in the test with Setaria faberi, the “damages, unwanted plants Setaria faberi” value was 98.

As to `C#CCN1C(=O)COc2cc(F)c(-n3c(=O)cc(C(F)(F)F)n(C)c3=O)cc21` [example 39, reference compound], the “damages, unwanted plants Pharbitis purpurea” value in the test on Pharbitis purpurea [3] came to 80. Further, the “damages, unwanted plants Setaria faberi” value with Setaria faberi came out at 90.
